Results as given in PubChem BioAssay (NCI).
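Where inhibition never reached the appropriate level, the endpoint shown equals the highest concentration tested. Otherwise, values were interpolated linearly from a five-concentration, 48-hour dose response in 96-well plates. TGI marks complete inhibition of growth.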

Columns and labels:
Test in all cases: NCI-60 cell line screen, 48 h
SK-MEL-5 melanoma = tested on: SK-MEL-5 melanoma
RPMI-8226 leukemia = tested on: RPMI-8226 leukemia
OVCAR-3 ovarian = tested on: OVCAR-3 ovarian
NCI-H23 lung = tested on: NCI-H23 lung
A549 NSCLC = tested on: A549 NSCLC
LOX IMVI melanoma = tested on: LOX IMVI melanoma
SF-295 CNS = tested on: SF-295 CNS
NCI/ADR-RES ovarian = tested on: NCI/ADR-RES ovarian
SN12C renal = tested on: SN12C renal
ACHN renal = tested on: ACHN renal
SF-539 CNS = tested on: SF-539 CNS
UACC-257 melanoma = tested on: UACC-257 melanoma
SNB-75 CNS = tested on: SNB-75 CNS
K-562 leukemia = tested on: K-562 leukemia
T-47D breast = tested on: T-47D breast
UO-31 renal = tested on: UO-31 renal
SNB-19 CNS = tested on: SNB-19 CNS
786-0 renal = tested on: 786-0 renal
HS 578T breast = tested on: HS 578T breast
OVCAR-4 ovarian = tested on: OVCAR-4 ovarian
HCT-116 colon = tested on: HCT-116 colon
SK-OV-3 ovarian = tested on: SK-OV-3 ovarian
U251 CNS = tested on: U251 CNS
RXF 393 renal = tested on: RXF 393 renal
SK-MEL-2 melanoma = tested on: SK-MEL-2 melanoma
NCI-H522 lung = tested on: NCI-H522 lung
HL-60(TB) leukemia = tested on: HL-60(TB) leukemia
COLO 205 colon = tested on: COLO 205 colon
NCI-H460 lung = tested on: NCI-H460 lung
SW-620 colon = tested on: SW-620 colon
NCI-H226 lung = tested on: NCI-H226 lung
HOP-92 NSCLC = tested on: HOP-92 NSCLC
TK-10 renal = tested on: TK-10 renal
PC-3 prostate = tested on: PC-3 prostate
KM12 colon = tested on: KM12 colon
MDA-N = tested on: MDA-N
MDA-MB-435 = tested on: MDA-MB-435
UACC-62 melanoma = tested on: UACC-62 melanoma
SR leukemia = tested on: SR leukemia
DU-145 prostate = tested on: DU-145 prostate
CAKI-1 renal = tested on: CAKI-1 renal
CCRF-CEM leukemia = tested on: CCRF-CEM leukemia
A498 renal = tested on: A498 renal
M14 melanoma = tested on: M14 melanoma
MDA-MB-231 breast = tested on: MDA-MB-231 breast
OVCAR-5 ovarian = tested on: OVCAR-5 ovarian
HCT-15 colon = tested on: HCT-15 colon
SK-MEL-28 melanoma = tested on: SK-MEL-28 melanoma
SF-268 CNS = tested on: SF-268 CNS
EKVX NSCLC = tested on: EKVX NSCLC
IGROV1 ovarian = tested on: IGROV1 ovarian
MOLT-4 leukemia = tested on: MOLT-4 leukemia
HT29 colon = tested on: HT29 colon
OVCAR-8 ovarian = tested on: OVCAR-8 ovarian
MCF7 breast = tested on: MCF7 breast
MALME-3M melanoma = tested on: MALME-3M melanoma
HCC-2998 colon = tested on: HCC-2998 colon
HOP-62 NSCLC = tested on: HOP-62 NSCLC

## C=C1C(O)C[C@H](OC(C)=O)[C@]2(C)C1C(OC(C)=O)[C@]1(C(C)(C)O)CC(O)C(C)=C1[C@@H](OC(=O)c1ccccc1)C2OC(C)=O (stereo partly specified)
SK-MEL-5 melanoma
  TGI: > 10 µM
RPMI-8226 leukemia
  TGI: > 10 µM
OVCAR-3 ovarian
  TGI: > 10 µM
NCI-H23 lung
  TGI: > 10 µM
A549 NSCLC
  TGI: > 10 µM
LOX IMVI melanoma
  TGI: > 10 µM
SF-295 CNS
  TGI: > 10 µM
NCI/ADR-RES ovarian
  TGI: > 10 µM
SN12C renal
  TGI: > 10 µM
ACHN renal
  TGI: > 10 µM
SF-539 CNS
  TGI: > 10 µM
UACC-257 melanoma
  TGI: > 10 µM
SNB-75 CNS
  TGI: > 10 µM
K-562 leukemia
  TGI: > 10 µM
T-47D breast
  TGI: > 10 µM
UO-31 renal
  TGI: > 10 µM
SNB-19 CNS
  TGI: > 10 µM
786-0 renal
  TGI: > 10 µM
HS 578T breast
  TGI: > 10 µM
OVCAR-4 ovarian
  TGI: > 10 µM
HCT-116 colon
  TGI: > 10 µM
SK-OV-3 ovarian
  TGI: > 10 µM
U251 CNS
  TGI: > 10 µM
RXF 393 renal
  TGI: > 10 µM
SK-MEL-2 melanoma
  TGI: > 10 µM
NCI-H522 lung
  TGI: > 10 µM
HL-60(TB) leukemia
  TGI: > 10 µM
COLO 205 colon
  TGI: > 10 µM
NCI-H460 lung
  TGI: > 10 µM
SW-620 colon
  TGI: > 10 µM
NCI-H226 lung
  TGI: > 10 µM
HOP-92 NSCLC
  TGI: > 10 µM
TK-10 renal
  TGI: > 10 µM
PC-3 prostate
  TGI: > 10 µM
KM12 colon
  TGI: > 10 µM
MDA-N
  TGI: > 10 µM
MDA-MB-435
  TGI: > 10 µM
UACC-62 melanoma
  TGI: > 10 µM
SR leukemia
  TGI: > 10 µM
DU-145 prostate
  TGI: > 10 µM
CAKI-1 renal
  TGI: > 10 µM
CCRF-CEM leukemia
  TGI: > 10 µM
A498 renal
  TGI: > 10 µM
M14 melanoma
  TGI: > 10 µM
MDA-MB-231 breast
  TGI: > 10 µM
OVCAR-5 ovarian
  TGI: > 10 µM
HCT-15 colon
  TGI: > 10 µM
SK-MEL-28 melanoma
  TGI: > 10 µM
SF-268 CNS
  TGI: > 10 µM
EKVX NSCLC
  TGI: > 10 µM
IGROV1 ovarian
  TGI: > 10 µM
MOLT-4 leukemia
  TGI: > 10 µM
HT29 colon
  TGI: > 10 µM
OVCAR-8 ovarian
  TGI: > 10 µM
MCF7 breast
  TGI: > 10 µM

## CCCCCCCCCCCCCCCCOP(=O)(O)OCC(N)C(=O)O (stereo unspecified)
SK-MEL-5 melanoma
  TGI: 32.6 µM
RPMI-8226 leukemia
  TGI: 47.9 µM
OVCAR-3 ovarian
  TGI: 41.1 µM
NCI-H23 lung
  TGI: 69.4 µM
A549 NSCLC
  TGI: 53.1 µM
LOX IMVI melanoma
  TGI: 28.2 µM
SF-295 CNS
  TGI: 31.3 µM
NCI/ADR-RES ovarian
  TGI: > 100 µM
SN12C renal
  TGI: 37.1 µM
ACHN renal
  TGI: 32.7 µM
SF-539 CNS
  TGI: 39.8 µM
UACC-257 melanoma
  TGI: > 100 µM
SNB-75 CNS
  TGI: 45.7 µM
K-562 leukemia
  TGI: 56.9 µM
T-47D breast
  TGI: > 100 µM
UO-31 renal
  TGI: 30.8 µM
SNB-19 CNS
  TGI: 35.9 µM
786-0 renal
  TGI: 41.6 µM
HS 578T breast
  TGI: 40.8 µM
OVCAR-4 ovarian
  TGI: 35.6 µM
HCT-116 colon
  TGI: 25.4 µM
SK-OV-3 ovarian
  TGI: 63.8 µM
U251 CNS
  TGI: 26.5 µM
RXF 393 renal
  TGI: 55 µM
SK-MEL-2 melanoma
  TGI: 40.5 µM
NCI-H522 lung
  TGI: 42 µM
COLO 205 colon
  TGI: 38.1 µM
MALME-3M melanoma
  TGI: > 100 µM
NCI-H460 lung
  TGI: 51.8 µM
HCC-2998 colon
  TGI: > 100 µM
SW-620 colon
  TGI: 38.6 µM
NCI-H226 lung
  TGI: 50.4 µM
HOP-92 NSCLC
  TGI: 38.4 µM
TK-10 renal
  TGI: 16.5 µM
PC-3 prostate
  TGI: 31.1 µM
KM12 colon
  TGI: 30.2 µM
MDA-N
  TGI: 43.1 µM
MDA-MB-435
  TGI: 39.8 µM
UACC-62 melanoma
  TGI: 37 µM
SR leukemia
  TGI: 61.4 µM
DU-145 prostate
  TGI: > 100 µM
CAKI-1 renal
  TGI: 28 µM
CCRF-CEM leukemia
  TGI: 65 µM
A498 renal
  TGI: 34.8 µM
M14 melanoma
  TGI: 46.5 µM
MDA-MB-231 breast
  TGI: 47.4 µM
OVCAR-5 ovarian
  TGI: 45.1 µM
HCT-15 colon
  TGI: 61.3 µM
SK-MEL-28 melanoma
  TGI: > 100 µM
SF-268 CNS
  TGI: 41.6 µM
EKVX NSCLC
  TGI: > 100 µM
IGROV1 ovarian
  TGI: 34.7 µM
MOLT-4 leukemia
  TGI: 29 µM
HT29 colon
  TGI: > 100 µM
OVCAR-8 ovarian
  TGI: > 100 µM
HOP-62 NSCLC
  TGI: 45.9 µM
